Measurements as given in ChEMBL document CHEMBL4184336, “Structure-Guided Modification of Heterocyclic Antagonists of the P2Y14 Receptor” (J Med Chem, 2018).

Experiments:
[1] = Aqueous solubility of the compound; assay type: physicochemical; details: buffer
[2] = system: HepG2; test: Cytotoxicity against human HepG2 cells; assay type: cell-based
[3] = biological target: Cytochrome P450 2C19 (Homo sapiens, UniProt P33261); test: Inhibition of CYP2C19 (unknown origin); assay type: ADME
[4] = biological target: Cytochrome P450 1A2 (Homo sapiens, UniProt P05177); test: Inhibition of CYP1A2 (unknown origin); assay type: ADME
Chain of Cytochrome P450 1A2 (P05177 whole entry): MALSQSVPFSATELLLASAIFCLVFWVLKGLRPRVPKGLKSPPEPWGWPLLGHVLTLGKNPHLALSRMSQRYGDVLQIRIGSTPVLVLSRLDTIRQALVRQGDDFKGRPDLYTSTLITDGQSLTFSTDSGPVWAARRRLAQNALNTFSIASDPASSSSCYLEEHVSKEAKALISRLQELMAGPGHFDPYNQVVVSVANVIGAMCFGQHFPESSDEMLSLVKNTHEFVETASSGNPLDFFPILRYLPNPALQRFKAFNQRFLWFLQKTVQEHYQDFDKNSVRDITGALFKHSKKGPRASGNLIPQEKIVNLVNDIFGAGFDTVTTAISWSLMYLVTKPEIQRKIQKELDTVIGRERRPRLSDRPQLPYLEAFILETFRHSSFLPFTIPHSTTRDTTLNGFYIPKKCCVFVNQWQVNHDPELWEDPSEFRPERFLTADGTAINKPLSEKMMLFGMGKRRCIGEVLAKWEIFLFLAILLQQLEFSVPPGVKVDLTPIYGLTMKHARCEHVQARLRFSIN

[5] = Half life in Sprague-Dawley rat plasma at 0.5 mg/kg, iv; assay type: ADME, organism-based
[6] = biological target: Delta-type opioid receptor (Homo sapiens, UniProt P41143); test: Displacement of [3H]-DADLE from human delta opioid receptor expressed in HEK293 cells after 90 mins by scintillation counting method; assay type: cell-based
Chain of Delta-type opioid receptor (P41143 whole entry): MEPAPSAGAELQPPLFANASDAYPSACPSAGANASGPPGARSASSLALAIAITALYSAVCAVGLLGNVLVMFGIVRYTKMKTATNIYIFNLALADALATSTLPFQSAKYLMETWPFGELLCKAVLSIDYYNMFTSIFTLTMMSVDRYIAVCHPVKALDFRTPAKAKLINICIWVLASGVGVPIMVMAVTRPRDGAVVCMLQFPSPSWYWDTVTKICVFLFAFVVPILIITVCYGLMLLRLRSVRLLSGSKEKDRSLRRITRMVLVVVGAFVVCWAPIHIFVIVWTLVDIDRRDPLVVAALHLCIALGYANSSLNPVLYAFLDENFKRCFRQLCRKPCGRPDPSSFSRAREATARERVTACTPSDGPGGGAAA

[7] = Metabolic stability in human plasma assessed as parent compound remaining after 120 mins; assay type: ADME, cell-free; details: read-out: Stability
[8] = biological target: T1, P2Y purinoceptor 14 (Homo sapiens, UniProt Q15391)
T1 sequence (Q15391 whole entry): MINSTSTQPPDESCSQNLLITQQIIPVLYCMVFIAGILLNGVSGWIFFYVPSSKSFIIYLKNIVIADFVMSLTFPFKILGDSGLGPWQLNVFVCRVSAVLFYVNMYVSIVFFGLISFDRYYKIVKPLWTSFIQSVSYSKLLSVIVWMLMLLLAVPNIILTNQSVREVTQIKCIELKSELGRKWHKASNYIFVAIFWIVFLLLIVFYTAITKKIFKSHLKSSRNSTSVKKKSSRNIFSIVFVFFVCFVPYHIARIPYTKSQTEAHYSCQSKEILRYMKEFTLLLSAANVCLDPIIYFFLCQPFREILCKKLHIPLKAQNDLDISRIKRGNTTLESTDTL
Description: Displacement of MRS4174 from human P2Y14R expressed in CHO cells preincubated for 30 mins followed by MRS4174 addition measured after 30 mins by flow cytometric method

[9] = biological target: Cytochrome P450 2D6 (Homo sapiens, UniProt P10635); test: Inhibition of CYP2D6 (unknown origin); assay type: ADME
[10] = Metabolic stability in mouse plasma assessed as parent compound remaining after 120 mins; assay type: ADME, cell-free; details: read-out: Stability
[11] = biological target: Cytochrome P450 3A4 (Homo sapiens, UniProt P08684); test: Inhibition of CYP3A4 (unknown origin); assay type: ADME
[12] = biological target: Cytochrome P450 2C9 (Homo sapiens, UniProt P11712); test: Inhibition of CYP2C9 (unknown origin); assay type: ADME
Chain of Cytochrome P450 2C9 (P11712 whole entry): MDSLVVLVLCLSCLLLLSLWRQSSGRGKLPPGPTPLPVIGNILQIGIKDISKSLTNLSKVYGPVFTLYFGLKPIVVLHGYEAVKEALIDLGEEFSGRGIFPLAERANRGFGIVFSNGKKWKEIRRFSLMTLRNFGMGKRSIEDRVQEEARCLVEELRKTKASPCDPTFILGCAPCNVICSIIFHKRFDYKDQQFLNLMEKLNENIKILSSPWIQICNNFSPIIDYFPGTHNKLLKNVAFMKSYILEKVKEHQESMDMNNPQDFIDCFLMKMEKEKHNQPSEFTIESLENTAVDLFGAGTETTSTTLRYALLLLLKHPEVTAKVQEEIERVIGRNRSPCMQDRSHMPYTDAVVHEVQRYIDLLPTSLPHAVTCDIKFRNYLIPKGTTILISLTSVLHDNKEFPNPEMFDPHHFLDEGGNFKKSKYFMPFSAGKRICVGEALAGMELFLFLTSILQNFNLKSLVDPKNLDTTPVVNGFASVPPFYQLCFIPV

[13] = biological target: Voltage-gated inwardly rectifying potassium channel KCNH2 (Homo sapiens, UniProt Q12809); test: Inhibition of human ERG
[14] = Metabolic stability in rat plasma assessed as parent compound remaining after 120 mins; assay type: ADME, cell-free; details: read-out: Stability
[15] = biological target: Sodium-dependent dopamine transporter (Homo sapiens, UniProt Q01959); test: Displacement of [3H]-WIN35428 from human DAT after 90 mins by scintillation counting method
[16] = biological target: Alpha-1B adrenergic receptor (Homo sapiens, UniProt P35368); test: Displacement of [3H]-Prazosin from human adrenergic alpha1B receptor after 90 mins by scintillation counting method
Chain of Alpha-1B adrenergic receptor (P35368 whole entry): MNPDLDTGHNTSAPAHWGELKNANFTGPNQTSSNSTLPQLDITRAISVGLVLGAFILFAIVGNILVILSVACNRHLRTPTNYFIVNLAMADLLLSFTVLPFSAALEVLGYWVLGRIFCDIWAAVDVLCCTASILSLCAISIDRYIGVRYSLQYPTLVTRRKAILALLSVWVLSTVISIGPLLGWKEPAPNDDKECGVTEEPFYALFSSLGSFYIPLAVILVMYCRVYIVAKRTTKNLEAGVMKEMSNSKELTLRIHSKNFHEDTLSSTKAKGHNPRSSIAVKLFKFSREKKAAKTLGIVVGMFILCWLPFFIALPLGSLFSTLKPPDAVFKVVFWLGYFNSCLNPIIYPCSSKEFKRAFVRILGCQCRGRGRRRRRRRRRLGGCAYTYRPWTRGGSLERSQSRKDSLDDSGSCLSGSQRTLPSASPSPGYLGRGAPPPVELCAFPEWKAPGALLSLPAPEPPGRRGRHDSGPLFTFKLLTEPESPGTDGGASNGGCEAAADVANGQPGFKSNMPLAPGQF

[17] = biological target: Alpha-1A adrenergic receptor (Homo sapiens, UniProt P35348); test: Displacement of [3H]-Prazosin from human adrenergic alpha1A receptor after 90 mins by scintillation counting method
[18] = biological target: Sodium-dependent noradrenaline transporter (Homo sapiens, UniProt P23975); test: Displacement of [3H]-Nisoxetine from human NET expressed in HEK293 cell membranes after 90 mins by scintillation counting method
[19] = biological target: Alpha-1D adrenergic receptor (Homo sapiens, UniProt P25100); test: Displacement of [3H]-Prazosin from human adrenergic alpha1D receptor after 90 mins by scintillation counting method
Chain of Alpha-1D adrenergic receptor (P25100 whole entry): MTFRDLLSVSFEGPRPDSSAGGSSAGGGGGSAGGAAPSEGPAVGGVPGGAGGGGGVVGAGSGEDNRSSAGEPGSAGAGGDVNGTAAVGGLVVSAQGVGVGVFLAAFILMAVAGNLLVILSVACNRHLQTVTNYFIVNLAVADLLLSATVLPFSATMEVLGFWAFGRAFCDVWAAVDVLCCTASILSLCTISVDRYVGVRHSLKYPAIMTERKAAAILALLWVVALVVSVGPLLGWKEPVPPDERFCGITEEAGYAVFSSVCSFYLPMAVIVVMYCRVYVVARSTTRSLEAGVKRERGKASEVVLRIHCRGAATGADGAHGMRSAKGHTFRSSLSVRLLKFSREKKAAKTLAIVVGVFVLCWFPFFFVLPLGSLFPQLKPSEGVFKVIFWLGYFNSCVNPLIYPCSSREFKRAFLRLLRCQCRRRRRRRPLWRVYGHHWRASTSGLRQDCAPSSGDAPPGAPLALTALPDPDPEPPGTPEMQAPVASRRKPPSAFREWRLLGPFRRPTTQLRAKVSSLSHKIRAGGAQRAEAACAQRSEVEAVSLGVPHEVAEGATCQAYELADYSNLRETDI

[20] = biological target: D(2) dopamine receptor (Homo sapiens, UniProt P14416); test: Displacement of [3H]N-methylspiperone from human dopamine D2 receptor expressed in HEK293T cell membranes after 90 mins by scintillation counting method
[21] = biological target: Histamine H2 receptor (Homo sapiens, UniProt P25021); test: Displacement of [125I]-Iodoaminopotentidine from human histamine H2 receptor expressed in HEK293T cell membranes after 90 mins by scintillation counting method
Chain of Histamine H2 receptor (P25021 whole entry): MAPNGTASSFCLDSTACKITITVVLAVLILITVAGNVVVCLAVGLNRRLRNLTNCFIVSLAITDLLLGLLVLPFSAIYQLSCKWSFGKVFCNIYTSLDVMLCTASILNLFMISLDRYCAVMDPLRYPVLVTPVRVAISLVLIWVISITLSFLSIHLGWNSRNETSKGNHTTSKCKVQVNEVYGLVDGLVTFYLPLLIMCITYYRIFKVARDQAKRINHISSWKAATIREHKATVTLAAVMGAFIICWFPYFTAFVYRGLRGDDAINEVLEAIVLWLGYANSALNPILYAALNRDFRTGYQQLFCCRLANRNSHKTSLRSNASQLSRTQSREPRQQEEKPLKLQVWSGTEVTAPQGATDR

[22] = biological target: D(1B) dopamine receptor (Homo sapiens, UniProt P21918); test: Displacement of [3H]SCH23390 from human dopamine D5 receptor expressed in HEK293T cell membranes after 90 mins by scintillation counting method
[23] = biological target: Alpha-2A adrenergic receptor (Homo sapiens, UniProt P08913); test: Displacement of [3H]Rauwolscine from human adrenergic alpha2A receptor expressed in MDCK cell membranes after 90 mins by scintillation counting method
Chain of Alpha-2A adrenergic receptor (P08913 whole entry): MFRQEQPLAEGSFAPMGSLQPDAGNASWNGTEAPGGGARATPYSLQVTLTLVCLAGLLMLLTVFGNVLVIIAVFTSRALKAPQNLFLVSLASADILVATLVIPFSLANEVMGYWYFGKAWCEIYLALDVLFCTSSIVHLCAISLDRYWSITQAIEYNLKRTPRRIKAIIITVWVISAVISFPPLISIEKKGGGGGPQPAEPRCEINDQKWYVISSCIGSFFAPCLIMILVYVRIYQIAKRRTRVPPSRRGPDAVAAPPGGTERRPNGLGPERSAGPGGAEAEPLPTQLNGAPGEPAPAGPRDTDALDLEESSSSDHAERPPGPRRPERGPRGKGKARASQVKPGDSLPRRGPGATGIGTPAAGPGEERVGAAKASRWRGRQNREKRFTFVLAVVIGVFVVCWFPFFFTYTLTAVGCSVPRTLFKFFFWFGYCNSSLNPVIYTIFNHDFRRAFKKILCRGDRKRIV

[24] = biological target: D(1A) dopamine receptor (Homo sapiens, UniProt P21728); test: Displacement of [3H]SCH23390 from human dopamine D1 receptor expressed in HEK293T cell membranes after 90 mins by scintillation counting method
Chain of D(1A) dopamine receptor (P21728 whole entry): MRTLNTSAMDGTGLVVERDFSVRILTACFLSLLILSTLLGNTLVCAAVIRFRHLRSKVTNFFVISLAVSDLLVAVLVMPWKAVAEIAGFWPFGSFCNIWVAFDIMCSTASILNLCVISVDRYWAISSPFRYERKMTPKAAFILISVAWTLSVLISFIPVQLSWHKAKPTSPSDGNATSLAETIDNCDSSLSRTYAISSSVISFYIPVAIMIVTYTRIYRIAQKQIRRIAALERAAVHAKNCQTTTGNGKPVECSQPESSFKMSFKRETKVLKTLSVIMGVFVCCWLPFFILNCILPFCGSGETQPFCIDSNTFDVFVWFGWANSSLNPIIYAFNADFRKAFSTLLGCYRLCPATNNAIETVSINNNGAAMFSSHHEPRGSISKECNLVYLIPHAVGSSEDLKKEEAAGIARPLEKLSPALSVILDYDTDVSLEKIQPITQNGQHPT

[25] = biological target: 5-hydroxytryptamine receptor 1A (Homo sapiens, UniProt P08908); test: Displacement of [3H]-Way100635 from human 5-HT1A receptor expressed in CHO cell membranes after 90 mins by scintillation counting method
[26] = biological target: 5-hydroxytryptamine receptor 2A (Homo sapiens, UniProt P28223); test: Displacement of [3H]-Ketanserin from human 5-HT2A receptor expressed in HEK293T cell membranes after 90 mins by scintillation counting method
[27] = biological target: Sigma intracellular receptor 2 (Homo sapiens, UniProt Q5BJF2); test: Displacement of [3H]-DTG from human sigma2 receptor expressed in HEK293T cell membranes after 90 mins by scintillation counting method
Chain of Sigma intracellular receptor 2 (Q5BJF2 whole entry): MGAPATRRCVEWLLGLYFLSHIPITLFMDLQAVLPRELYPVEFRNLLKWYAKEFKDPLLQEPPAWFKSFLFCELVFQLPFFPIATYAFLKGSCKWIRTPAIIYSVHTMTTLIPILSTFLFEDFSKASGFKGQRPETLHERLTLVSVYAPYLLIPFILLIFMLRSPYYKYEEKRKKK

[28] = biological target: D(3) dopamine receptor (Homo sapiens, UniProt P35462); test: Displacement of [3H]N-methylspiperone from human dopamine D3 receptor expressed in HEK293T cell membranes after 90 mins by scintillation counting method
[29] = biological target: Alpha-2B adrenergic receptor (Homo sapiens, UniProt P18089); test: Displacement of [3H]Rauwolscine from human adrenergic alpha2B receptor expressed in HEK293T cell membranes after 90 mins by scintillation counting method
[30] = biological target: 5-hydroxytryptamine receptor 6 (Homo sapiens, UniProt P50406); test: Displacement of [3H]-LSD from human 5-HT6 receptor expressed in HEK293 cell membranes after 90 mins by scintillation counting method
[31] = biological target: Translocator protein (Rattus norvegicus, UniProt P16257); test: Displacement of [3H]-PK11195 from rat brain TSPO after 90 mins by scintillation counting method
Chain of Translocator protein (P16257 whole entry, looked up): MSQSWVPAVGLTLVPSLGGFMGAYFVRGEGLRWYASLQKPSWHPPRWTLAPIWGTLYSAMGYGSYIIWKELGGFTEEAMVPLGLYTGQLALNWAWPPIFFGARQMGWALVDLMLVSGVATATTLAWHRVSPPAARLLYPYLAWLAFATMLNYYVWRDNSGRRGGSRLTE

[32] = biological target: Kappa-type opioid receptor (Homo sapiens, UniProt P41145); test: Displacement of [3H]-U69593 from human KOR expressed in HEK293 cell membranes after 90 mins by scintillation counting method
Chain of Kappa-type opioid receptor (P41145 whole entry): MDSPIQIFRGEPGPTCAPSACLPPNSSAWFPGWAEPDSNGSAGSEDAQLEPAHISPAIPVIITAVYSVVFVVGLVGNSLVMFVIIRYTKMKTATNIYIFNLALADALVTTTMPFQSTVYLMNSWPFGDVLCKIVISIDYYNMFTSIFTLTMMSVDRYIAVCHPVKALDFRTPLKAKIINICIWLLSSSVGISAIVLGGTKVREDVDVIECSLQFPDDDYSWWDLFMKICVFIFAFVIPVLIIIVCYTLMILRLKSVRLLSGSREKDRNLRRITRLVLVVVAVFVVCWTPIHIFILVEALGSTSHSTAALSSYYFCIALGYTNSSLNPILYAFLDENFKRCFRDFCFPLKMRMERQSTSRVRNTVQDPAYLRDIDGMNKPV

[33] = biological target: Sodium-dependent serotonin transporter (Homo sapiens, UniProt P31645); test: Displacement of [3H]-Citalopram from human SERT expressed in HEK293 cell membranes after 90 mins by scintillation counting method
[34] = biological target: Beta-3 adrenergic receptor (Homo sapiens, UniProt P13945); test: Displacement of [3H]-CGP12177 from human adrenergic beta-3 receptor expressed in HEK Flp-In cell membranes after 90 mins by scintillation counting method
Chain of Beta-3 adrenergic receptor (P13945 whole entry): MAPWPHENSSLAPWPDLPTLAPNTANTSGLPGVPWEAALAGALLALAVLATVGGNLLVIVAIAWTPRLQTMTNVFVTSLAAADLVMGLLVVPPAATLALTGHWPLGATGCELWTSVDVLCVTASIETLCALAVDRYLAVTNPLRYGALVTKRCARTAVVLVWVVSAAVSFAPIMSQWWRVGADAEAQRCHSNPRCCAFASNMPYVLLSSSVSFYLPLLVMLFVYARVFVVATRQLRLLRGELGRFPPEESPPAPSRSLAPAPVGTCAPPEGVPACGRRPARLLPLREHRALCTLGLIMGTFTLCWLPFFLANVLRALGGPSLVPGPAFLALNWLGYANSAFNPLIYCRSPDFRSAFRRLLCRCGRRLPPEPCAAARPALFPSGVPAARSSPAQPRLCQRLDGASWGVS

CCN(CC)CC.NC(=O)c1ccc(-c2cc(C(=O)O)cc(-n3cc(-c4ccc(C(F)(F)F)cc4)nn3)c2)cc1
solubility [1]: 138 µg/mL
CC50 [2]: > 30000 nM
IC50 [3]: ≥ 30000 nM
IC50 [4]: ≥ 30000 nM
half-life [5]: 12 min
Ki [6]: 1470 nM
remaining at 2 h [7]: 94 to 100%
IC50 [8]: 269 nM
IC50 [9]: ≥ 30000 nM
remaining at 2 h [10]: 94 to 100%
IC50 [11]: ≥ 30000 nM
IC50 [12]: ≥ 30000 nM
IC50 [13]: 166 nM
remaining at 2 h [14]: 94 to 100%

NC(=O)c1ccc(-c2cc(C(=O)O)cc(-n3cc(-c4ccc(C(F)(F)F)cc4)nn3)c2)nc1
IC50 [8]: 516 nM

CC(C)(C)OC(=O)NCCCNC(=O)c1ccc(-c2cc(C(=O)O)cc(-n3cc(-c4ccc(C(F)(F)F)cc4)nn3)c2)s1
IC50 [8]: 2280 nM

NCCCNS(=O)(=O)c1ccc(-c2cc(C(=O)O)cc(-n3cc(-c4ccc(C(F)(F)F)cc4)nn3)c2)s1
IC50 [8]: 756 nM

C#CCCCCN1CCC(c2ccc(-c3cc(C(=O)O)cc4cc(-c5ccc(C(F)(F)F)cc5)ccc34)cc2)CC1
IC50 [8]: 763 nM

CCNC(=O)c1ccc(-c2cc(C(=O)O)cc(-n3cc(-c4ccc(C(F)(F)F)cc4)nn3)c2)cc1
IC50 [8]: 899 nM

NCCCNC(=O)c1ccc(-c2cc(-c3nnn[nH]3)cc(-n3cc(-c4ccc(C(F)(F)F)cc4)nn3)c2)s1
IC50 [8]: 1190 nM

NC(=O)c1cnc(-c2cc(C(=O)O)cc(-n3cc(-c4ccc(C(F)(F)F)cc4)nn3)c2)cn1
IC50 [8]: 566 nM

NS(=O)(=O)c1ccc(-c2cc(C(=O)O)cc(-n3cc(-c4ccc(C(F)(F)F)cc4)nn3)c2)s1
IC50 [8]: 6440 nM

O=C(O)c1cc(-c2ccc(S(=O)(=O)NCCCCO)s2)cc(-n2cc(-c3ccc(C(F)(F)F)cc3)nn2)c1
IC50 [8]: 8420 nM

FC(F)(F)c1ccc(-c2cn(-c3cc(Br)cc(-c4nnn[nH]4)c3)nn2)cc1
IC50 [8]: 33100 nM

O=C(O)c1cc(-c2ccc(C(=O)N3CCNCC3)s2)cc(-n2cc(-c3ccc(C(F)(F)F)cc3)nn2)c1
IC50 [8]: 12600 nM

CC(C)(C)OC(=O)NCCCNS(=O)(=O)c1ccc(-c2cc(C(=O)O)cc(-n3cc(-c4ccc(C(F)(F)F)cc4)nn3)c2)s1
IC50 [8]: 9330 nM

NS(=O)(=O)c1ccc(-c2cc(C(=O)O)cc(-n3cc(-c4ccc(C(F)(F)F)cc4)nn3)c2)cc1
Ki [6]: 3260 nM
IC50 [8]: 608 nM

CCCNC(=O)c1ccc(-c2cc(C(=O)O)cc(-n3cc(-c4ccc(C(F)(F)F)cc4)nn3)c2)cc1
IC50 [8]: 1490 nM

NCCCCCCn1cc(CCCCN2CCC(c3ccc(-c4cc(C(=O)O)cc5cc(-c6ccc(C(F)(F)F)cc6)ccc45)cc3)CC2)nn1
Ki [15]: 1070 nM
Ki [16]: 1110 nM
Ki [17]: 1770 nM
Ki [18]: 1870 nM
Ki [19]: 1270 nM
Ki [20]: 8210 nM
Ki [21]: 365 nM
Ki [22]: 1070 nM
Ki [23]: 28 nM
Ki [24]: 7600 nM
Ki [25]: 5650 nM
Ki [26]: 8400 nM
IC50 [8]: 25.4 nM
Ki [27]: 1200 nM
Ki [28]: 1600 nM
Ki [29]: 984 nM

CC(C)(C)OC(=O)NCCCCCCn1cc(CCCCN2CCC(c3ccc(-c4cc(C(=O)O)cc5cc(-c6ccc(C(F)(F)F)cc6)ccc45)cc3)CC2)nn1
Ki [30]: 7900 nM
Ki [31]: 5600 nM
Ki [32]: 4060 nM
Ki [21]: 829 nM
Ki [33]: 2080 nM
Ki [23]: 5280 nM
IC50 [8]: 133 nM
Ki [34]: 2360 nM

O=C(O)c1cc(Br)cc(-n2cc(-c3ccc(C(F)(F)F)cc3)nn2)c1
IC50 [8]: 26800 nM

O=C(O)c1cc(-c2ccc(S(=O)(=O)N3CCNCC3)cc2)cc(-n2cc(-c3ccc(C(F)(F)F)cc3)nn2)c1
IC50 [8]: 1640 nM

O=C(O)c1cc(-c2ccc(S(=O)(=O)N3CCNCC3)s2)cc(-n2cc(-c3ccc(C(F)(F)F)cc3)nn2)c1
IC50 [8]: 1510 nM

CC(=O)NCCCCCCn1cc(CCCCN2CCC(c3ccc(-c4cc(C(=O)O)cc5cc(-c6ccc(C(F)(F)F)cc6)ccc45)cc3)CC2)nn1
IC50 [8]: 83.5 nM
